{"source": "ChEMBL document CHEMBL1154023", "about": "“Carbonic anhydrase inhibitors. Inhibition of the beta-class enzyme from the pathogenic yeast Candida glabrata with anions” (Bioorg Med Chem Lett, 2009)", "data": [{"target": "T1, Carbonic anhydrase (Candida glabrata CBS 138, UniProt Q6FTL6)", "T1 sequence (Q6FTL6 whole entry)": "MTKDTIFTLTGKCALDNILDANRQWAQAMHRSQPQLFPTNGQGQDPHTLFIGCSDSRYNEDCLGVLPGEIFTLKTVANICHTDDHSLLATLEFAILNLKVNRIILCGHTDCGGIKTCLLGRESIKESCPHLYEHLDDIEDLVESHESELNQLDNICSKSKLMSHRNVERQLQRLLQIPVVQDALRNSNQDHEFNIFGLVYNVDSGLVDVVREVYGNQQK", "experiment": "Inhibition of Candida glabrata carbonic anhydrase by stopped flow CO2 hydration assay", "design": "species or system Nakaseomyces glabratus", "units": {"Ki": "µM"}, "values": [{"smiles": "OB(O)c1ccccc1", "note": "[PHENYLBORONIC ACID]", "Ki": 100}, {"smiles": "NS(=O)(=O)O", "note": "[SODIUM SULFAMATE]", "Ki": 110}, {"smiles": "NS(N)(=O)=O", "note": "[SULFAMIDE]", "Ki": 420}]}]}
